The values below come from ChEMBL document CHEMBL1130844, “Synthesis and NK1 receptor antagonistic activity of (+/-)-1-acyl-3-(3,4- dichlorophenyl)-3-[2-(spiro-substituted piperidin-1'-yl)ethyl]piperidines” (Bioorg Med Chem Lett, 1998).

The target in assay [1] is Substance-P receptor (Cavia porcellus, UniProt P30547). The assay is described as follows: Neurokinin (NK1) receptor antagonistic activity was evaluated. It is filed as functional.
Assay [2] has as its system Cavia porcellus. The assay can be described thus: Inhibitory activity of substance P-induced bronchoconstriction in guinea pigs upon intravenous administration was evaluated. It is filed as functional. The conditions noted are these: read-out: ID50 (the source's name).

Sequence of Substance-P receptor (P30547 whole entry): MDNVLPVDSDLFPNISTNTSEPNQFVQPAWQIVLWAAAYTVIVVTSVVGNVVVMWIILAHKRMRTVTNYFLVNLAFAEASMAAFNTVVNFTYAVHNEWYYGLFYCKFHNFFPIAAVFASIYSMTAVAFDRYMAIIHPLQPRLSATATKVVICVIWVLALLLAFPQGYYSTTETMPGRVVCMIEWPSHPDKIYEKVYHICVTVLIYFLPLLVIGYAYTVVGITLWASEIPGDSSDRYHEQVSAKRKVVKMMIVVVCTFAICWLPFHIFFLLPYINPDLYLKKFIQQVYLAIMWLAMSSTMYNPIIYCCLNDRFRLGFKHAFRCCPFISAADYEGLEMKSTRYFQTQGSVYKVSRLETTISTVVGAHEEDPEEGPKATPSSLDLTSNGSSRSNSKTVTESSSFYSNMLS

Regarding `CC(C)Oc1cccc(CC(=O)N2CCCC(CC[N+]3(C)CCC4(CC3)NC(=O)Cc3ccccc34)(c3ccc(Cl)c(Cl)c3)C2)c1` (stereo in doubt; 5bb), in assay [1], the IC50 – broadly, the concentration that gives 50% inhibition – came to 35 nM.

`CC(C)Oc1cccc(CC(=O)N2CCCC(CCN3CCC4(CC3)NC(=O)Cc3ccccc34)(c3ccc(Cl)c(Cl)c3)C2)c1` (configuration not stated) had a half-inhibitory concentration (IC50) in assay [1] of 54 nM.

Compound `CC(C)Oc1cccc(CC(=O)N2CCCC(CCN3CCC4(CC3)OCc3ccccc34)(c3ccc(Cl)c(Cl)c3)C2)c1` (configuration not stated) came in with an IC50 in assay [1] of 16 nM.

`CC(C)Oc1cccc(CC(=O)N2CCCC(CC[N+]3(C)CCC4(CC3)c3ccccc3C[S+]4[O-])(c3ccc(Cl)c(Cl)c3)C2)c1` (configuration not stated) had an IC50 in assay [1] of 6.3 nM.

Consider `CC[N+]1(CCC2(c3ccc(Cl)c(Cl)c3)CCCN(C(=O)Cc3cccc(OC(C)C)c3)C2)CCC2(CC1)NCCc1ccccc12` (configuration not stated), for which the IC50 in assay [1] was 4.8 nM.

In assay [1], `CC(C)Oc1cccc(CC(=O)N2CCCC(CCN3CCC4(CC3)c3ccccc3C[S+]4[O-])(c3ccc(Cl)c(Cl)c3)C2)c1` (configuration not stated) returned an IC50 of 18 nM.

On to `CC(C)Oc1cccc(CC(=O)N2CCCC(CC[N+]3(C)CCC4(CC3)NC(=O)Cc3ccccc34)(c3ccc(Cl)c(Cl)c3)C2)c1.[I-]` (stereo in doubt; 5ba), for which the ED50 in assay [2] turned out to be 0.024 mg/kg. The compound further had an IC50 in assay [1] of 1.9 nM.

In assay [1], `CN(CC(CCN1CCC2(CC1)NCCc1ccccc12)c1ccc(Cl)c(Cl)c1)C(=O)c1ccccc1` (configuration not stated) had an IC50 of 58 nM.

`CC(C)Oc1cccc(CC(=O)N2CCCC(CCN3C4CCC3CC3(C4)OCc4ccccc43)(c3ccc(Cl)c(Cl)c3)C2)c1` (configuration not stated) returned an IC50 in assay [1] of 105 nM.

In turn, `CN(CC(CCN1CCC2(CC1)OCc1ccccc12)c1ccc(Cl)c(Cl)c1)C(=O)c1ccccc1` (configuration not stated) returned an IC50 in assay [1] of 710 nM.

For `CC(C)Oc1cccc(CC(=O)N2CCCC(CC[N+]34CCC(c5ccccc5)(CC3)CC4)(c3ccc(Cl)c(Cl)c3)C2)c1.[Cl-]` (racemic), in assay [2], the ED50 amounted to 0.019 mg/kg. Half-maximal inhibition in assay [1] (IC50) required 0.31 nM.

In assay [1], `CC(C)Oc1cccc(CC(=O)N2CCCC(CC[N+]3(Cc4ccccc4)CCC4(CC3)NCCc3ccccc34)(c3ccc(Cl)c(Cl)c3)C2)c1` (configuration not stated) came in with an IC50 of 16 nM.

As to `CC(C)Oc1cccc(CC(=O)N2CCCC(CCN3CCC4(CC3)NCCc3ccccc34)(c3ccc(Cl)c(Cl)c3)C2)c1` (configuration not stated), the IC50 in assay [1] came to 31 nM.

As for `CC(C)Oc1cccc(CC(=O)N2CCCC(CC[N+]3(C)CCC4(CC3)NCCc3ccccc34)(c3ccc(Cl)c(Cl)c3)C2)c1.[I-]` (configuration not stated), in assay [2], the ED50 was 0.049 mg/kg. Moreover, the IC50 in assay [1] stood at 2 nM.
